Like-named read-outs stand apart in the source and are kept apart here.
Columns and labels:
MDA-MB-231 cells [1] = conditions: 50 µM
Procedure: (§1) MCF-7 cells were cultured in Dulbecco's Modified Eagle Medium/Nutrient Mixture F-12 (DMEM/F-12) (Gibco, New York, USA), which was supplemented with 10 % fetal bovine serum (FBS) (Gibco, New York, USA) and 1 % Penicillin-Streptomycin (P/S) (Gibco, New York, USA). MDA-MB-231 cells were cultured in DMEM high glucose (Gibco, New York, USA), supplemented with 10 % FBS and 1 % P/S.
(§2) MCF-7 cells were cultured in DMEM/F-12, while MDA-MB-231 cells were maintained in high-glucose DMEM. Both media were supplemented with 10 % foetal bovine serum (FBS) and 1 % penicillin/streptomycin (P/S). Cells were incubated for 24 h at 37 °C in a humidified atmosphere with 5 % CO2. […] Doxorubicin was used as a positive control. Following compound treatment, cells were incubated for 72 h under standard culture conditions. After treatment, the medium was replaced with serum-free medium containing 0.5 mg mL^-1 of 3-(4,5-dimethylthiazol-2-yl)-2,5-diphenyltetrazolium bromide (MTT), and cells were incubated for an additional 3 h. The MTT solution was then removed, and dimethyl sulfoxide (DMSO) was added to solubilize the formazan crystals. Absorbance was measured at 595 nm using a Microplate Spectrophotometer MR-850 BioPlate Reader (Biometrics Technologies, Wilmington, DE, USA). Compounds that reduced cell viability to ≤20 % compared to untreated controls were identified as hits for subsequent dose-response analysis. […] Treated cells were incubated for 72 h, followed by an MTT assay as described above. The absorbance at 595 nm was recorded, and IC50 values were determined using GraphPad Prism 9 (GraphPad Software, San Diego, CA, USA).

MCF-7 cells [2] = conditions: 50 µM
Procedure: as §1, §2

MCF-7 cells [3] = assay: Primary screening, MTT cell viability, MCF-7; conditions: for viability at 50 µM: Homo sapiens, MCF7, 72 h, read-out: MCF-7 cell viability, %, 50 μM, 72 h, MTT; for inhibition of viability of MCF-7 cells: primary single-concentration screening
Procedure: as §1, §2

MDA-MB-231 cells [4] = assay: Primary screening, MTT cell viability, MDA-MB-231; conditions: for viability at 50 µM: Homo sapiens, MDA-MB-231, 72 h, read-out: MDA-MB-231 cell viability, %, 50 μM, 72 h, MTT
Procedure: as §1, §2

MDA-MB-231 cells [5] = assay: Secondary screening (dose-response), MTT assay, MDA-MB-231; format: cell-based, human; conditions: read-out: IC50 MDA-MB-231
Procedure: as §1, §2

in vitro = conditions: human, HepG2 cells
Procedure: (§3) The human liver cells (HepG2 cells) were seeded into a 96-well plate at a cell density of 10^4 cells/well and were incubated with DMEM/F-12 with 10 % FBS and 1 % P/S for 24 hours in an incubator (37 °C and 5 % CO2). […] Then, they were additionally incubated for 72 hours. After 72 hours of incubation, the culture media containing the compounds were removed, and serum-free media containing MTT was added instead, with an additional 3 hours of incubation at 37 °C and 5 % CO2. After 3 hours of incubation, the MTT-containing media was removed and DMSO was added to the assay plates, resulting in different shades of purple colour measured by Microplate Spectrophotometer MR-850 BioPlate Reader. The calculation of CC50 was analysed by using GraphPad Prism 9.

MCF-7 cells [6] = assay: Secondary screening (dose-response), MTT assay, MCF-7; format: cell-based, human; conditions: read-out: IC50 MCF-7
Procedure: as §1, §2

HepG2 cells = conditions: for SI (CC50/IC50) HepG2: MDA-MB-231: ratio of CC50 in HepG2 to IC50 in MDA-MB-231; for SI (CC50/IC50) HepG2: MCF-7: ratio of CC50 in HepG2 to IC50 in MCF-7
Procedure: as §3

In the case of 3,6-phenanthrenedione [Compound 5], the “MDA-MB-231 cell viability, %” value (MDA-MB-231 cells [1]) is reported as 68.01 ± 3.88% and the “MCF-7 cell viability, %” value (MCF-7 cells [2]) is reported as 75.58 ± 4.26%.

Compound `C=C[C@@]1(C)C[C@H]2C[C@H](O)[C@]3(O)[C@@H](CCCC3(C)C)[C@]2(C)CC1=O` [Compound 2, glomerulatusin] has a viability at 50 µM (MCF-7 cells [3]; mean ± SEM) of 77.7 ± 4.87% and a viability at 50 µM (MDA-MB-231 cells [4]; mean ± SEM) of 56.3 ± 2.17%.

`C[C@H]1C(=O)CC[C@@H]2[C@]1(C)CC[C@H]1[C@@]2(C)CC[C@@]2(C)[C@@H]3CC(C)(C)CC[C@]3(C)CC[C@]12C` [Compound 3, friedelin] gave a viability at 50 µM (MCF-7 cells [3]; mean ± SEM) of 79.2 ± 4.29% and a viability at 50 µM (MDA-MB-231 cells [4]; mean ± SEM) of 68.1 ± 2.96%.

Compound `CC1(C)C(=O)C=C[C@]2(C)[C@@H]1CC[C@@]13C[C@@H](CC[C@H]12)C(O)(CO)C3` (stereo partly drawn) [Compound 4, anomaluone] has a viability at 50 µM (MCF-7 cells [3]; mean ± SEM) of 72.7 ± 4.68% and a viability at 50 µM (MDA-MB-231 cells [4]; mean ± SEM) of 53.8 ± 1.88%.

`O=C1C[C@@H](c2ccccc2)Oc2cc(O)cc(O)c21` [Compound 6, pinocembrin] gave a viability at 50 µM (MCF-7 cells [3]; mean ± SEM) of 95.6 ± 2.96% and a viability at 50 µM (MDA-MB-231 cells [4]; mean ± SEM) of 74.4 ± 2.32%.

`COc1cc(O)c2c(c1)O[C@H](c1ccccc1)CC2=O` [Compound 7, pinostrobin] gave a viability at 50 µM (MCF-7 cells [3]; mean ± SEM) of 88.5 ± 4.12% and a viability at 50 µM (MDA-MB-231 cells [4]; mean ± SEM) of 61.6 ± 3.69%.

For `COc1cc(-c2cc(=O)c3c(O)c(OC)c(OC)cc3o2)cc(OC)c1OC` [Compound 8, 5-hydroxy-6,7,3',4',5'-pentamethoxyflavone], the viability at 50 µM (MCF-7 cells [3]; mean ± SEM) was 63.1 ± 1.83% and the viability at 50 µM (MDA-MB-231 cells [4]; mean ± SEM) was 44.7 ± 1.93%.

For `O=c1cc(-c2ccccc2)oc2cc(O)cc(O)c12` [Compound 9, chrysin], the viability at 50 µM (MCF-7 cells [3]; mean ± SEM) was 76.7 ± 3.4% and the viability at 50 µM (MDA-MB-231 cells [4]; mean ± SEM) was 64.5 ± 1.19%.

For `COc1cc2c(O[C@@H]3OC[C@@H](OC)[C@H](OC)[C@H]3O)c3c(c(-c4ccc5c(c4)OCO5)c2cc1OC)C(=O)OC3` [Compound 10, cleistanthin A], the IC50 (MDA-MB-231 cells [5]; Homo sapiens, MDA-MB-231, 72 h) was 20 nM, the viability at 50 µM (MCF-7 cells [3]; mean ± SEM) was 1.72 ± 0.23% and the “inhibition of viability of MCF-7 cells” value (MCF-7 cells [3]; 50 μM, 72 h) was “more than 80%”. It also gave a CC50 at 72 h (in vitro) of 5370 nM, an IC50 (MCF-7 cells [6]; Homo sapiens, MCF7, 72 h) of 540 nM and a viability at 50 µM (MDA-MB-231 cells [4]; mean ± SEM) of 8.85 ± 0.73%. The “inhibition of viability of MDA-MB-231 cells” value (MDA-MB-231 cells [4]; primary single-concentration screening, 50 μM, 72 h) was “more than 80%”, the “SI (CC50/IC50) HepG2: MDA-MB-231” value (HepG2 cells) was 268.50 and the “SI (CC50/IC50) HepG2: MDA-MB-231” value (HepG2 cells; listed as cleistanthin A) was greater than 100.

With `CC(=O)c1ccc(O)cc1` [Compound 11, 4-hydroxyacetophenone] the viability at 50 µM (MCF-7 cells [3]; mean ± SEM) was 85.2 ± 4.2% and the viability at 50 µM (MDA-MB-231 cells [4]; mean ± SEM) was 50.2 ± 2.73%.

With `COc1cccc2c1C(=O)c1c(O)c3c(c(O)c1C2=O)C[C@@](O)(C(=O)CO)C[C@@H]3O[C@H]1C[C@H](N)[C@H](O)[C@H](C)O1` [Doxorubicin, reference compound] the IC50 (MDA-MB-231 cells [5]; Homo sapiens, MDA-MB-231, 72 h, MTT, mean ± SD) was 980 nM, the viability at 50 µM (MCF-7 cells [3]; mean ± SEM) was 4.02 ± 0.24% and the CC50 at 72 h (in vitro) was 550 nM. The IC50 (MCF-7 cells [6]; Homo sapiens, MCF7, 72 h, MTT, mean ± SD) was 660 nM, the viability at 50 µM (MDA-MB-231 cells [4]; mean ± SEM) was 4.72 ± 1.07% and the “SI (CC50/IC50) HepG2: MCF-7” value (HepG2 cells; listed as DoxorubICin) was 0.83. For the same compound, the “SI (CC50/IC50) HepG2: MCF-7” value (HepG2 cells; listed as doxorubicin) was “below 1”, the “SI (CC50/IC50) HepG2: MDA-MB-231” value (HepG2 cells; listed as DoxorubICin) was 0.56 and the “SI (CC50/IC50) HepG2: MDA-MB-231” value (HepG2 cells; listed as doxorubicin) was “below 1”.

With “(3,4,5)-trihydroxy-6-methoxy-2,7-bis(3-methylbut-2-en-1-yl)-9H-xanthen-9-one [Compound 1]” the IC50 (MDA-MB-231 cells [5]; 72 h, MTT, mean ± SD) was 34200 nM, the “MCF-7 cell viability, %” value (MCF-7 cells [3]; 50 μM, 72 h, MTT, mean ± SEM) was 1.60 ± 0.10% and the “inhibition of viability of MCF-7 cells” value (MCF-7 cells [3]; 50 μM, 72 h) was “more than 80%”. The IC50 (MCF-7 cells [6]; 72 h, MTT, mean ± SD) was 28300 nM, the “MDA-MB-231 cell viability, %” value (MDA-MB-231 cells [4]; 50 μM, 72 h, MTT, mean ± SEM) was 59.00 ± 3.33% and the CC50 (HepG2 cells; read-out: CC50 HepG2, 72 h, MTT) was 32800 nM.

From publication PMC12662241, “New xanthone and chemical constituents from the aerial parts of Mallotus glomerulatus and their cytotoxicity in MCF-7 and MDA-MB-231 breast cancer cells” (ADMET & DMPK, 2025)
